Data on 14 compounds can be found in patent publication US11279687B2, “Compounds and compositions for the inhibition of NAMPT” (Valo Health, Inc., priority 2010, dated 2022).

In assay [1] the test system is A2780 cells. Nature of the assay: A2780 xenograft study in mice. Conditions: female SCID mice, s.c. A2780 tumors, p.o. BID for 5 or 10 days, dose selected from MTD study. It is filed as in vivo, C.B-17-Igh-1b-Prkdc^scid mice. As for the experimental part: C.B-17-Igh-1b-Prkdc^scid mice (female) were injected s.c. with 5×10^6 A2780 cells (NCI) in the left flank. 10-12 days later when tumors reached 100-200 mm3 in size, mice were randomized into treatment groups of 8 mice per group including vehicle control and reference standard groups. The compounds were formulated in 60:30:10 PEG-400:D5W: Ethanol and administered p.o., at the dose volume of 10 ml/kg BID for a duration of 5 or 10 days. The dose used for efficacy was selected from the MTD (Maximum Tolerated Dose) study. Mice were weighed and tumors measured using vernier calipers every alternate day. Tumor volume was calculated according to the formula (length×width^2)/2. All animal work was approved by the Institutional Animal Care and Use Committee of Biological Resource Centre, Singapore.

The target in the next assay is NAMPT (Homo sapiens (Human), UniProt P43490). Nature of the assay: NAMPT biochemical inhibition assay (NMN quantified by mass spectrometry). To be noted: NAMPT biochemical inhibition; read-out: Biochem IC50.
Assay [2] concerns A2780 cells. Nature of the assay: In-vitro cell proliferation assay (SRB), A2780 cells.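 Also: viable cell number read as SRB absorbance, background from media-only wells subtracted, IC50 interpolated from percent inhibition at two bracketing compound concentrations.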 It is filed as cell-based. To be noted: Homo sapiens, A2780, 72 h, A2780 cells, 72 hours, SRB; read-out: A2780 IC50.

“Also recorded” adds a separate entry of the source.

Sequence of NAMPT (P43490 whole entry): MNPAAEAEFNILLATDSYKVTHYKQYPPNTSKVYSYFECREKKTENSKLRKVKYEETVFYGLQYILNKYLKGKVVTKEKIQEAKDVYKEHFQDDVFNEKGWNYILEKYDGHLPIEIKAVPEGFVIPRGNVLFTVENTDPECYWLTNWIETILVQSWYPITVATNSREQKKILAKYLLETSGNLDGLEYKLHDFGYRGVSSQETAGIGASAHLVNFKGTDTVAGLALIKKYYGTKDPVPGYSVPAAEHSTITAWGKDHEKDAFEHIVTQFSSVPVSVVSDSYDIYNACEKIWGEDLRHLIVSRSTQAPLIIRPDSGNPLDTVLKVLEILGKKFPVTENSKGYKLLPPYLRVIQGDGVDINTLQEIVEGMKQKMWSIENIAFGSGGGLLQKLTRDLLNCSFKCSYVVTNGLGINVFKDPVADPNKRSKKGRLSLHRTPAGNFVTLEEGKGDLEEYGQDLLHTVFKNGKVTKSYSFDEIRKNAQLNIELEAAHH

By IC50 is commonly meant the concentration that gives 50% inhibition. Take `O=C(NCc1cccnc1)Nc1ccc(S(=O)(=O)c2ccccc2OC(F)(F)F)cc1` [1-(pyridin-3-ylmethyl)-3-(4-{[2-(trifluoromethoxy)benzene]sulfonyl}phenyl)urea]: the “effect on tumor growth in A2780 xenograft” value (from here on “effect on tumor growth”) with A2780 cells [1] is on record as “tumor regression”. Further, the IC50 was determined as 1 nM at NAMPT and 3 nM with A2780 cells [2].

For `COc1cc(Cl)c(C)cc1NS(=O)(=O)c1ccc(NC(=O)NCc2cccnc2)cc1` [3-{4-[(4-chloro-2-methoxy-5-methylphenyl)sulfamoyl]phenyl}-1-(pyridin-3-ylmethyl)urea], in the assay on A2780 cells [1], the “effect on tumor growth” value is “tumor stasis”. The concentration for half-maximal inhibition (IC50) at NAMPT turned out to be 1 nM; in the assay on A2780 cells [2], 6 nM.

Regarding `O=C(NCc1cccnc1)Nc1ccc(S(=O)(=O)N[C@H]2C[C@@H]3CC[C@H]2C3)cc1` [1-(4-{[(1S,2S,4R)-bicyclo[2.2.1]heptan-2-yl]sulfamoyl}phenyl)-3-(pyridin-3-ylmethyl)urea], the “effect on tumor growth” value in the assay on A2780 cells [1] is “delayed tumor growth”. For the same compound, the half-maximal inhibitory concentration (IC50) was 7 nM on NAMPT and 46 nM with A2780 cells [2].

For the compound `O=C(NCc1cccnc1)Nc1ccc(S(=O)(=O)Nc2cccc3ccccc23)cc1` [1-{4-[(naphthalen-1-yl)sulfamoyl]phenyl}-3-(pyridin-3-ylmethyl)urea], the “effect on tumor growth” value with A2780 cells [1] is “delayed tumor growth”. Further, the 50% inhibitory concentration (IC50) at NAMPT stood at 1 nM; in the assay on A2780 cells [2] it was 19 nM.

In the case of `O=C(NCc1ccc2nccn2c1)Nc1ccc(S(=O)(=O)N2CCC(N3CCOCC3)CC2)cc1` [3-{imidazo[1,2-a]pyridin-6-ylmethyl}-1-{4-[4-(morpholin-4-yl)piperidine-1-sulfonyl]phenyl}urea], the “effect on tumor growth” value with A2780 cells [1] was “delayed tumor growth”. Moreover, the half-maximal inhibitory concentration (IC50) turned out to be 4 nM on NAMPT and 5 nM in the assay on A2780 cells [2].

`O=C(NCc1cccnc1)Nc1ccc(S(=O)(=O)N2CCC(N3CCOCC3)CC2)cc1` [1-{4-[4-(morpholin-4-yl)piperidine-1-sulfonyl]phenyl}-3-(pyridin-3-ylmethyl)urea]: the “effect on tumor growth” value with A2780 cells [1] is on record as “delayed tumor growth”. Also, the figures for the IC50 on NAMPT and in the assay on A2780 cells [2] were 9 nM and 13 nM, respectively.

In the case of `COc1ccc(Cl)cc1NS(=O)(=O)c1ccc(NC(=O)NCc2cccnc2)cc1` [3-{4-[(5-chloro-2-methoxyphenyl)sulfamoyl]phenyl}-1-(pyridin-3-ylmethyl)urea], the “effect on tumor growth” value in the assay on A2780 cells [1] is reported as “delayed tumor growth”. For the same compound, the concentration for half-maximal inhibition (IC50) at NAMPT came out at 0.9 nM; in the assay with A2780 cells [2], 3 nM.

As to `C[C@@H]1CN(S(=O)(=O)c2ccc(NC(=O)NCc3ccc4nccn4c3)cc2)C[C@H](C)O1` [1-{4-[(2R,6S)-2,6-dimethylmorpholine-4-sulfonyl]phenyl}-3-{imidazo[1,2-a]pyridin-6-ylmethyl}urea], the “effect on tumor growth” value with A2780 cells [1] is “delayed tumor growth”. The IC50 is 8 nM at NAMPT and 25 nM in the assay with A2780 cells [2].

`COc1ccc(C(F)(F)F)cc1NS(=O)(=O)c1ccc(NC(=O)NCc2cccnc2)cc1` [3-(4-{[2-methoxy-5-(trifluoromethyl)phenyl]sulfamoyl}phenyl)-1-(pyridin-3-ylmethyl)urea]: the “effect on tumor growth” value in the assay with A2780 cells [1] is “delayed tumor growth”. For the same compound, the IC50 on NAMPT was found to be 0.1 nM; in the assay on A2780 cells [2], 2 nM.

Turning to `COc1cccc(NS(=O)(=O)c2ccc(NC(=O)NCc3cccnc3)cc2)c1C` [3-{4-[(3-methoxy-2-methylphenyl)sulfamoyl]phenyl}-1-(pyridin-3-ylmethyl)urea], the “effect on tumor growth” value with A2780 cells [1] is recorded as “delayed tumor growth”. Also, the IC50 at NAMPT amounted to 2 nM; in the assay on A2780 cells [2] it was 57 nM.

Turning to `Cc1ccc(Cl)c(NS(=O)(=O)c2ccc(NC(=O)NCc3cccnc3)cc2)c1` [3-{4-[(2-chloro-5-methylphenyl)sulfamoyl]phenyl}-1-(pyridin-3-ylmethyl)urea], in the assay with A2780 cells [1], the “effect on tumor growth” value is on record as “delayed tumor growth”. Also, the IC50 was 0.3 nM at NAMPT and 9 nM in the assay with A2780 cells [2].

Take `O=C(NCc1cccnc1)Nc1ccc(S(=O)(=O)N2CC3CCC(C2)O3)cc1` [1-(4-{8-oxa-3-azabicyclo[3.2.1]octane-3-sulfonyl}phenyl)-3-(pyridin-3-ylmethyl)urea]: the “effect on tumor growth” value in the assay on A2780 cells [1] is given as “tumor regression”. Moreover, the IC50 in the assay on A2780 cells [2] stood at 29 nM.

Turning to `O=C(NCc1cccnc1)Nc1ccc(S(=O)(=O)c2ccc(F)cc2)cc1` [3-{4-[(4-fluorobenzene)sulfonyl]phenyl}-1-(pyridin-3-ylmethyl)urea], in the assay with A2780 cells [1], the “effect on tumor growth” value is given as “delayed tumor growth”. The IC50 on NAMPT turned out to be 4 nM; in the assay with A2780 cells [2], 171 nM.

As to `O=C(NCc1ccc2nccn2c1)Nc1ccc(S(=O)(=O)c2ccc(F)cc2)cc1` [1-{4-[(4-fluorobenzene)sulfonyl]phenyl}-3-{imidazo[1,2-a]pyridin-6-ylmethyl}urea], the “effect on tumor growth” value in the assay with A2780 cells [1] was “tumor stasis; also recorded: delayed tumor growth”. Besides, the results for the IC50 at NAMPT and in the assay with A2780 cells [2] were 3 nM and 29 nM, respectively.
